# Test results: patent EP2277860B1, “Compositions comprising sulfonated estolides and alkyl ester sulfonates, methods of making them, and compositions and processes employing them” (STEPAN COMPANY, priority 2009, dated 2011)
# Experiment: CMC via the Wilhelmy plate technique
# Type: physicochemical
# Description: Not to be bound by theory, surfactants with low CMC values tend to be more mild to enzymes based on low monomer concentrations in solution which interfere with enzyme stability. The measured CMC, via the Wilhelmy plate technique, of SHP is 30 mg/L while that of the sodium salt of AES is 80 mg/L and NaLAS is 900 mg/L.
substance,measurement,value
"linear alkylbenzene sulfonic acid, sodium salt [NaLAS]",CMC,900 mg/L
